PubChem BioAssay (NCI)
Several values for one entry are separate records, joined by “and”; a condition that tells them apart may be missing. Identical values can stand only once.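 Step 1: Grow cells in 96-well plates. Step 2: Expose to compound for 48 hours at 5 concentrations. Step 3: Interpolate endpoints linearly; if unreached, use highest concentration. At the GI50, growth is halved. TGI: concentration producing complete growth inhibition.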

Legend:
Assay in all cases: NCI anticancer screen, dose series, 48 h
[1] = test system: SK-MEL-28 melanoma
[2] = test system: MDA-MB-231 breast
[3] = test system: SNB-75 CNS
[4] = test system: EKVX NSCLC
[5] = test system: U251 CNS
[6] = test system: NCI-H226 lung
[7] = test system: A549 NSCLC
[8] = test system: RXF 393 renal
[9] = test system: LOX IMVI melanoma
[10] = test system: MOLT-4 leukemia

| SMILES | GI50 [1] [µM] | TGI [1] | GI50 [2] [µM] | TGI [2] | GI50 [3] [µM] | TGI [3] | GI50 [4] [µM] | TGI [4] [µM] | GI50 [5] [µM] | TGI [5] | GI50 [6] [µM] | TGI [6] | GI50 [7] [µM] | TGI [7] | GI50 [8] [µM] | TGI [8] | GI50 [9] [µM] | TGI [9] | GI50 [10] [µM] | TGI [10] |
| --- | --- | --- | --- | --- | --- | --- | --- | --- | --- | --- | --- | --- | --- | --- | --- | --- | --- | --- | --- | --- |
| Nc1cccc2c1C(=O)c1cccc(NC(=O)c3ccccc3)c1C2=O | 1.11 | 21 µM | 1.06 | > 100 µM | 0.28 | 3.88 µM | 0.421 | 4.52 | 0.54 | 13.8 µM | 1.7 | > 100 µM | 0.677 | 4.66 µM | 0.363 | 2.95 µM | 0.565 | > 100 µM | 0.751 | > 100 µM |
| N#Cc1cccc(N2C(=O)C3C4C=CC(C3C2=O)C2C(=O)N(c3cccc(C#N)c3)C(=O)C42)c1 (centres undefined) | – | > 63.1 µM | – | > 100 µM | – | 17.6 µM | – | > 100 | – | 26.8 µM | – | > 63.1 µM | – | > 63.1 µM | – | 22.9 µM | – | > 63.1 µM | – | 50.2 µM |
| CS(=O)(=O)N(c1cc(-c2ccc3ncnc(Nc4ccc(F)c(Cl)c4)c3c2)cnc1Cl)S(C)(=O)=O | 0.54 | 4.93 µM | 1.75 | 9.65 µM | 0.0739 | 0.698 µM | 0.649 | 5.19 | 1.15 | 13.4 µM | 1.9 | 24.3 µM | 1.98 | 11.2 µM | 0.711 | 3.4 µM | 0.879 | 4.73 µM | 1.18 | 7.74 µM |
| N#CC1=C(N)NC(=O)NC12Nc1ccccc1N2 | > 100 | > 100 µM | > 100 | > 100 µM | 45.2 | > 100 µM | > 100 | > 100 | > 100 | > 100 µM | > 100 | > 100 µM | > 100 | > 100 µM | > 100 | > 100 µM | > 100 | > 100 µM | > 100 | > 100 µM |
| CC/C(=C/c1ccc(OC)cc1OC)[N+](=O)[O-] | 2.51 | 6.51 µM | 3.08 | 8.96 µM | 3.28 | 16.6 µM | 15.4 | 28.9 | 4.93 | 16.2 µM | 2.28 | 4.73 µM | 8.37 | 23.4 µM | 1.88 | 3.57 µM | 1.31 | 2.9 µM | 3.73 | 35.6 µM |
| Nc1ccc(/C=C/c2ccc3cccnc3c2)cc1 | – | > 100 µM | – | > 100 µM | – | > 100 µM | – | > 100 | – | > 100 µM | – | > 100 µM | – | > 100 µM | – | > 100 µM | – | > 100 µM | – | > 100 µM |
| O=C1NC(c2ccccc2)C2(C(=O)O)CN(C3CC3)c3cc(N4CCNCC4)c(F)cc3C2N1 (centres undefined) | > 100 | > 100 µM | > 100 | > 100 µM | > 100 | > 100 µM | > 100 | > 100 | > 100 | > 100 µM | > 100 | > 100 µM | > 100 | > 100 µM | > 100 | > 100 µM | > 100 | > 100 µM | > 100 | > 100 µM |
| O=C(/C=C/C12c3ccccc3C(c3ccccc31)C1C(=O)NC(=O)C12)c1ccccc1 (centres undefined) | 1.88 | 3.63 µM | 2.96 | 13.1 µM | 1.2 | 2.55 µM | 1.75 | 4.39 | 1.55 | 2.96 µM | 2.28 | 6.51 µM | 2.65 | 11.8 µM | 1.5 | 2.94 µM | 1.63 | 3.12 µM | 2.17 | 11.6 µM |
| COc1c(N2CCN(CN3C(=O)C(=Nc4ccc(S(=O)(=O)Nc5ncccn5)cc4)c4cc(Cl)ccc43)C(C)C2)c(F)cc2c(=O)c(C(=O)O)cn(C3CC3)c12 (centres undefined) | 30.4 | > 50 µM | 8.28 | 31 µM | 19.1 | > 50 µM | 18.9 | > 50 | 34.8 | > 50 µM | 30 | > 50 µM | 18.5 | > 50 µM | 8.3 | > 50 µM | 12.8 | > 50 µM | 33.3 | > 50 µM |
| Cc1cccc2c1[nH]c(=O)c1c3ccccc3cn21 | 6.86 | > 100 µM | 2.42 | 17.5 µM | 30.7 | > 100 µM | 5.61 | 44.6 | 6.57 | 19.4 µM | 3.25 | 27.6 µM | 4.98 | > 100 µM | 9.19 | 38.4 µM | 6.22 | 18.4 µM | 1.81 | 5.56 µM |
| CN(C)CCCNc1nc2ccccc2c2[nH]c3ccccc3c12 | 2.04 | 5.84 µM | 0.907 | 2.16 µM | 1.16 | 3.78 µM | 1.38 | 4.75 | 0.679 | 2.59 µM | 1.26 | 4.22 µM | 0.402 | 8.18 µM | 1.23 | 3.55 µM | 0.75 | 1.64 µM | 0.276 | 50 µM |
| CCC1=C(CC2NCCc3ccccc32)CC2c3cc(OC)c(OC)cc3CCN2C1 (centres undefined) | 4.35 | 14.4 µM and 9.26 µM | 3.4 | 14.4 µM and 1.75 µM | 4.09 | 13.8 µM and 2.47 µM | 4.81 | – | 4.8 | 16.4 µM and 2.77 µM | 4.7 | 37.4 µM and 4.74 µM | 3.49 | 19.9 µM and 4.88 µM | 2.67 | 13.5 µM and 5.3 µM | 4.4 | 15.5 µM and 5.68 µM | 3.39 | 13.8 µM and 2.2 µM |
| O=C([O-])CC(=O)[O-].[NH-][C@@H]1CCCC[C@H]1[NH-].[Pt+4] | 35.8 | > 100 µM | > 100 | > 100 µM | > 35.9 | > 100 µM | > 100 | > 100 | 17.4 | > 83.3 µM | 5.9 | > 80.6 µM | 11.1 | > 100 µM | > 79 | > 100 µM | 15 | > 100 µM | 1.29 | 61.4 µM |
| COc1ccc(S(=O)(=O)N(C(C)=O)c2ccccc2/C=C/c2cc[n+]([O-])cc2)cc1 | > 4.8 | > 10 µM | 1.26 | > 10 µM | 0.25 | > 10 µM | 1.02 | > 10 | 0.504 | > 10 µM | 2.48 | > 10 µM | 0.636 | > 10 µM | 0.456 | > 6.85 µM | 0.955 | > 10 µM | 1.25 | > 10 µM |
| C=C1CCC2C3(C)COC(c4ccccc4Cl)OC3CCC2(C)C1/C=C/C1=CCOC1=O (centres undefined) | > 100 | > 100 µM | > 100 | > 100 µM | > 100 | > 100 µM | 2.82 | > 100 | 24 | > 100 µM | 14.3 | > 100 µM | 4.97 | > 100 µM | > 100 | > 100 µM | 6.77 | > 100 µM | 3.77 | > 100 µM |
| CCOC(=O)/C=C/c1cccc(F)c1 | – | > 100 µM | – | > 100 µM | – | > 100 µM | – | > 100 | – | > 100 µM | – | > 100 µM | – | > 100 µM | – | > 100 µM | – | > 100 µM | – | > 100 µM |
| CNC(=O)c1cncc(/C=C/c2ccccc2Cl)c1 | > 25 | > 25 µM | > 25 | > 25 µM | > 19.7 | > 25 µM | > 25 | > 25 | > 25 | > 25 µM | > 25 | > 25 µM | > 25 | > 25 µM | > 25 | > 25 µM | > 25 | > 25 µM | > 25 | > 25 µM |
| CCn1c(-c2nonc2N)nc2c(N3CCCC3)nccc21 | > 25 | > 25 µM | > 18.8 | > 25 µM | 10.3 | > 25 µM | > 25 | > 25 | 9.43 | > 25 µM | 10 | > 25 µM | 13.2 | > 25 µM | 9.63 | > 25 µM | 8.91 | > 25 µM | 10.5 | > 25 µM |
| O=C(O)c1ccc(SSc2ccc(C(=O)O)cn2)nc1 | – | > 100 µM | – | > 100 µM | – | > 100 µM | – | > 100 | – | > 100 µM | – | > 100 µM | – | > 100 µM | – | > 100 µM | – | > 100 µM | – | > 100 µM |
| C[C@@H]1CC[C@@]2(NC1)O[C@H]1C[C@H]3[C@@H]4CC[C@H]5C[C@@H](O)CC[C@]5(C)[C@H]4CC[C@]3(C)[C@H]1[C@@H]2C | – | > 100 µM | – | > 100 µM | – | > 100 µM | – | > 100 | – | > 100 µM | – | > 100 µM | – | > 100 µM | – | > 100 µM | – | > 100 µM | – | > 100 µM |
| O=C[C@@H](CO)O[C@H](C=O)n1cnc2c(=O)[nH]cnc21 | – | 1530 µM | – | 1010 µM | – | 2270 µM | – | 1320 | – | 2500 µM | – | 1780 µM | – | 2460 µM | – | 1470 µM | – | 534 µM | – | 686 µM |
